Measurements as given in patent US10022382B2, “RNA polymerase I inhibitors and uses thereof” (Tel HaShomer Medical Research Infrastructure and Services …, priority 2013, dated 2018).

Experiments:
C57BL/6J mice = assay: Toxicity (LD50, survival) in the EAE model, continuous administration; assay type: in vivo
Protocol: (§1) The animals were evaluated for signs of acute toxicity and survival during the entire administration period in the EAE model.
(§2) The therapeutic index (LD50/ED50), which is also referred to herein as Safety Margin (SM), was then determined based on the EAE model.

[1] = as above; assay type: in vivo; conditions: C57BL/6J, mouse, in vivo, oral; EAE prevention model, continuous administration
Protocol: as §1, §2

naive mice = assay: Single dose oral toxicity in naive mice; assay type: in vivo; conditions: single oral dose 3 mg/kg to 500.0 mg/kg, 24 h
Protocol: The toxicity of oral administration of a single dose of Compound 10 was tested in naïve mice using range from 3 mg/kg to 500.0 mg/kg.

Pol II = assay: Cell-free polymerase II transcription from CMV promoter; assay type: biochemical, human; conditions: 200 nM
Protocol: Transcription by polymerase II from CMV promoter was tested similarly using the template provided HeLa scribe kit of Promega, further processing as described above and analysis of transcript with template specific primers: POL II forward primer: ctatgcgcacccgttctc (SEQ ID NO: 73), Pol II reverse primer: gtagcgaagcgagcagga (SEQ ID NO: 74). Probe ID: #70, cat. no. 04688937001 (Roche), was used for both reactions.

Mouse splenocytes = assay: XTT cell viability assay, PHA-stimulated splenocytes; assay type: cell-based; conditions: 72 hours
Protocol: Cell viability was assessed by the 2,3 bis [2-Methoxy-4-nitro-5-sulfophenyl]-2H-tetrazolium-5-carboxanilide (XTT) assay (Biological Industries, Kibbutz Beit Hemeek, Israel), which measures the reduction of a tetrazolium component (XTT) into soluble formazan product by the mitochondria of viable cells. The intensity of the dye obtained is proportional to the number of metabolic active cells. On the day of measurement, cells were washed and XTT was added according to the manufacturer's instructions. Plates were incubated at 37° C. for 2-5 hours. The absorbance was read at 450 nm.
Mouse splenocytes were removed and spleenocytes were plated (250,000 cell/well) in DMEM+10% FCS+P/S+Q and […] Phytohaemaglutinin (PHA), in the presence of elevated concentrations (25-400 nM) of RAM-0 (Compound 1), RAM-1 (Compound 4), RAM-2 (Compound 2) or RAM-3 (Compound 3) for 72 hours. Cells cultured without PHA served as control. Control mice at zero are mice splenocytes with PHA stimulation.
Following incubation, cell viability was determined by XTT assay, as described above.

Pol I = assay: Cell-free Pol I transcription assay; assay type: biochemical, human; conditions: 200 nM
Protocol: Cell-free Pol I transcription assay was performed according to Drygin et al. (2010). Briefly, a reaction mixture consisting of 8 units of HeLa scribe nuclear extract (Promega) in transcription buffer and MgCl2 (4 mM) was combined with POL1-Inhibitor (200 nM) and […] a-amanitin (Sigma) for 20 minutes at ambient temperature. Following, 10 ng DNA template (GENEWIZ, Inc.; http://www(dot)genewiz(dot)com(dot)cn) corresponding to the (−160/+350) region on human rDNA was added and the reaction was incubated for 5 minutes at ambient temperature. Transcription was initiated by adding rNTPs mix to a final concentration of 1 mM and the reaction was incubated for 1 hour at 30° C. Afterward, DNase I (Ambion kit) was added and the reaction was further incubated for 25 minutes at 37° C. DNase activity was terminated with adding an inactivation solution according the manufacturer's protocol. The samples were then subjected for RNA isolation (following the same procedure described in Example 3 hereinabove). Pellets of RNA were re-suspended in DEPC-treated double distilled water and subjected for reverse transcription by a High capacity kit (Applied Biosystems). The resultant transcripts were analyzed by qRT-PCR in a Light cycler 480 system using primer pairs (Sigma) and probe for real-time PCR. […]

[2] = EAE mice, 30 mg/kg every alternate day until disease onset

## Cc1cnc(CNC(=O)c2/c(=N/c3ccccc3)c3ccc(N4CCCN(C)CC4)nc3n3c2sc2ccccc23)cn1 [Compound 10, (E)-2-(4-methyl-1,4-diazepan-1-yl)-N-((5-methylpyrazin-2-yl)methyl)-5-(phenylimino)-5H-benzo[4,5]thiazolo[3,2-a][1,8]naphthyridine-6-carboxamide]
C57BL/6J mice; C57BL/6J, mouse, in vivo, 28 days
  survival: 100%
C57BL/6J mice; [2]
  behavioral changes: No behavioral changes
  survival: No effect on survival
  tolerability: well tolerated
C57BL/6J mice; all treated groups, EAE model, alternate days
  signs of toxicity: without apparent signs of toxicity
[1]
  LD50: 30 mg/kg
Naive mice
  behavioral changes: No behavioral changes
  survival: No effect on survival
Pol II
  effect on Pol II transcription from the CMV promoter: 5%
Mouse splenocytes
  suppression of splenocyte proliferation compared to Compound 1 (XTT): improved performance
Mouse splenocytes; Splenocyte, mouse splenocytes, 25-400 nM
  IC50: 40 nM
Pol I
  inhibition of Pol I transcription from the pre-rRNA promoter: about 40%
